{"source": "paper PMC10374108", "about": "“Structural and biochemical characterization of the key components of an auxin degradation operon from the rhizosphere bacterium Variovorax” (PLOS Biology, 2023)", "key": {"[1]": {"tested_on": "IadK2 mutants", "experiment": "Thermal shift assay (TSA), IadK2 mutants and IAA", "assay_type": "binding, Variovorax paradoxus CL14", "design": "unit not given here", "details": "replicates", "description": "(§1) Ligands concentrations were tested at 2- to […] excess (10 to 1,000 μM) relative to the proteins (5 μM). The fluorescence dye SYPRO Orange at a final of 200-fold dilution was used to monitor the unfolding of proteins. The protein and ligand were incubated for 10 min at room temperature before the addition of SYPRO Orange dye. The QuantStudio 1 Plus real-time PCR system (Thermo Fisher) was used to control the temperature increasing from […] to […] with an increment of […] and to monitor the fluorescence (excitation: 520 ± 10 nm and emission: 558 ± 10 nm). Each tested group was run in triplicate and repeated. Data was imported to the Protein Thermal Shift software for analysis and plotting."}, "[2]": {"tested_on": "IadG", "experiment": "ITC, IAA binding to IadG", "design": "species or system Variovorax paradoxus CL14", "description": "(§2) ITC experiments were performed using a MicroCal PEAQ-ITC system (Malvern). All the experiments were performed at […] in a buffer containing 25 mM Tris-HCl (pH 7.5) and 150 mM NaCl (unless otherwise stated). […] Data was analyzed using the MicroCal PEAQ-ITC analysis software. All the measurements were repeated at least 2 times."}, "[3]": {"molecular_target": "IadH (Variovorax paradoxus, UniProt A0A0H2LZB5)", "sequence (A0A0H2LZB5 entry or part of it)": "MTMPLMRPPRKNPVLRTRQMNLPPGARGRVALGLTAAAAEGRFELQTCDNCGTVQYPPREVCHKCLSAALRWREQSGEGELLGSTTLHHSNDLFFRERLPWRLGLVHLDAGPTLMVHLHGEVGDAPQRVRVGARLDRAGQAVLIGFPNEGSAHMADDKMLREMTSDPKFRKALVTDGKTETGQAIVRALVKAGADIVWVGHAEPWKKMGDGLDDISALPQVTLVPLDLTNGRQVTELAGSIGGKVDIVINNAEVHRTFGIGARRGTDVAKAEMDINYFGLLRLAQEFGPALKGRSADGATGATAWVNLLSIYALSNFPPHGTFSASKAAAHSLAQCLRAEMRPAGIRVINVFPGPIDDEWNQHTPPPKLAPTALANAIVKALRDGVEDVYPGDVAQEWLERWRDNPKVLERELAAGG", "experiment": "ITC, IAA binding to IadH", "design": "species or system Variovorax paradoxus CL14", "description": "as §2"}, "[4]": {"tested_on": "Iad proteins", "experiment": "Thermal shift assay (TSA), other Iad proteins with IAA", "assay_type": "binding, Variovorax paradoxus CL14", "details": "for ΔTm: replicates", "description": "as §1"}}, "note": "Values joined by “and” are separate entries in the source; they are usually repeats but may differ in a detail not shown here. Equal entries are not always repeated."}
{"smiles": "O=C(O)Cc1c[nH]c2ccccc12", "note": "[IAA, indole-3-acetic acid]", "values": [{"measurement": "Tm change with IAA (TSA)", "setting": "[1]; IadK2 A125G", "value": "2.99 and 2.492 and 3.488"}, {"measurement": "Tm change with IAA (TSA)", "setting": "[1]; IadK2 A125T/N126P", "value": "1.993 and 1.495 (2×)"}, {"measurement": "Tm change with IAA (TSA)", "setting": "[1]; IadK2 A249G", "value": "3.986 and 4.485 and 5.4814"}, {"measurement": "Tm change with IAA (TSA)", "setting": "[1]; IadK2 F168G", "value": 0.4983}, {"measurement": "Tm change with IAA (TSA)", "setting": "[1]; IadK2 F308G", "value": 1.495}, {"measurement": "Tm change with IAA (TSA)", "setting": "[1]; IadK2 H248G", "value": "2.492 (2×) and 3.488"}, {"measurement": "Tm change with IAA (TSA)", "setting": "[1]; IadK2 N126A", "value": "3.488 (2×) and 2.99"}, {"measurement": "Tm change with IAA (TSA)", "setting": "[1]; IadK2 R199A", "value": "0.4983 and 0 (2×)"}, {"measurement": "Tm change with IAA (TSA)", "setting": "[1]; IadK2 S014V/W172L", "value": 0}, {"measurement": "Tm change with IAA (TSA)", "setting": "[1]; IadK2 S104A", "value": "2.99 and 2.492 and 3.488"}, {"measurement": "Tm change with IAA (TSA)", "setting": "[1]; IadK2 S104V", "value": "2.492 and 1.495 and 1.993"}, {"measurement": "Tm change with IAA (TSA)", "setting": "[1]; IadK2 S224A", "value": "2.99 and 3.986 (2×)"}, {"measurement": "Tm change with IAA (TSA)", "setting": "[1]; IadK2 W172A", "value": "0.4983 and 0 (2×)"}, {"measurement": "Tm change with IAA (TSA)", "setting": "[1]; IadK2 W172L", "value": 0}, {"measurement": "Tm change with IAA (TSA)", "setting": "[1]; IadK2 Y311A", "value": 0}, {"measurement": "IAA binding (ITC)", "setting": "[2]", "value": "no binding detected"}, {"measurement": "Kd", "setting": "[2]; ITC, replicates", "value": "> 100", "unit": "µM"}, {"measurement": "IAA binding (ITC)", "setting": "[3]", "value": "no binding detected"}, {"measurement": "Kd", "setting": "[3]; ITC, replicates", "value": "> 100", "unit": "µM"}, {"measurement": "effect on melting temperature (TSA)", "setting": "[4]; Iad proteins other than IadK2, result in words", "value": "no profound effects"}, {"measurement": "ΔTm", "setting": "[4]; IadC with IAA", "value": "-0.4983 °C and 0.9966 °C and 0 °C"}, {"measurement": "ΔTm", "setting": "[4]; IadF with IAA", "value": "0.4983 °C and -0.9966 °C and 0 °C"}, {"measurement": "ΔTm", "setting": "[4]; IadG with IAA", "value": "1.495 °C (2×) and 1.993 °C"}, {"measurement": "ΔTm", "setting": "[4]; IadH with IAA", "value": "0.9966 °C and 0 °C and -0.4983 °C"}, {"measurement": "ΔTm", "setting": "[4]; IadI with IAA", "value": "0.4983 °C and -0.4983 °C and -1.993 °C"}, {"measurement": "ΔTm", "setting": "[4]; IadJ with IAA", "value": "0 °C and 0.4983 °C and 1.495 °C"}]}
